7 molecules from patent US11530265B2, “Multipartite signaling proteins and uses thereof” (2seventy bio, Inc., priority 2013, dated 2022) can be followed below.

One data set deals with K562-CD19 cells. The following applies: for cytotoxicity responses on titration of bridging factor: DARIC expressing T cells, broad range of drug concentrations. As to the method:
The transduced T cells were then co-incubated with about a 50:50 mixture of the K562 target cells expressing either CD19 (K562-CD19) or CD20 (K562-CD20) to evaluate antigen-specific cytotoxicity. […] The DARIC antigen binding component includes a CD19 antigen binding scFv domain and a FKBP12 multimerization domain, which was linked to a mCherry fluorescent protein.
A series of additional DARIC molecules, in which the antigen binding component was maintained on the T cell surface rather than released into the extracellular space, were tested (see, e.g., FIG. 1I). Several protein regions and transmembrane domains were used to anchor the binding domain to the T cell surface (SEQ ID NOS.:50, 53, 56, 59), each altering the spacing or steric parameters governing multimerization of the DARIC binding and signaling components.
Deactivation of the DARIC system by the addition of a pharmacological agent that competes for binding to one of the multimerization domains was tested. Primary human T cells expressing either a traditional CD19 targeting CAR or primary human T cells expressing the CD19 targeting DARIC components (SEQ ID NO.:66) were co-incubated with 50:50 mixtures of K562-CD19 and K562-CD20 cells.

For the next data set, the system named is K562-CD19 target cells. Kind of data set: Cytotoxicity of IVT-mRNA electroporated T cells encoding DARIC components against K562-CD19/K562-CD20 mixture (flow cytometry). The format is cell-based, human. As to the method:
Recombinant T cells expressing the two DARIC components were incubated with K562 target cells (a human myeloid leukemia cell line), which were modified to express either CD19 or CD20 antigen, to examine target cell lysis. Briefly, T cells were co-incubated with a 50:50 mixture of K562-CD19 and K562-CD20 target cell lines, at 3:1 or 10:1 T cell to target cell ratios. […] The relative percentage of each of the target cell lines was monitored by flow cytometry staining for the CD19 and CD20 antigens to evaluate cell lysis (see FIG. 3).
Four samples of primary human T cells were prepared by electroporation with IVT-mRNA encoding (i) an extensively validated single-chain chimeric antigen receptor (CAR) (CD19-CAR, SEQ ID NO.:14, positive control); (ii) the DARIC signaling component only (DSC, SEQ ID NO.:16, negative control); iii) the DARIC binding component only (DBC-CD19, SEQ ID NO.:2, negative control); and (iv) both DARIC binding and signaling components (DSC, SEQ ID NO.:16 plus DBC-CD19, SEQ ID NO.:2). The relative percentages of each of the target cell lines were monitored by flow cytometry staining for the CD19 and CD20 antigens (FIG. 3A).
The percent specific cytotoxicity was calculated for each condition as the percentage change relative the input K562-CD19:K562-CD20 ratio.
On the technique in general: Flow cytometry measures light scatter and fluorescence of single cells or particles in a stream.

In data set [1] the test system is CD19 expressing K562 target cells. As to the kind of experiment: Cytokine secretion of T cells encoding DARIC components co-incubated with K562 target cells (Cytokine Bead Array). The format is cell-based, human. As to the method: Recombinant T cells expressing the two DARIC components were incubated with K562 target cells (a human myeloid leukemia cell line), which were modified to express either CD19 or CD20 antigen, to examine cytokine expression. […] Supernatants were isolated for analysis of cytokine production (see FIG. 4).
Two samples of primary human T cells were isolated, expanded, and then prepared by electroporation with IVT-mRNA encoding either (i) the validated single-chain CAR (CD19-CAR, SEQ ID NO.:[…], positive control); or (ii) both DARIC binding and signaling components (DSC, SEQ ID NO.:16 plus DBC-CD19, SEQ ID NO.:2). […] The supernatants were then collected and assayed for analyte concentrations using cytokine capture antibody-labeled beads (Becton Dickenson Cytokine Bead Array, human Th1/Th2 kit). Comparison with recombinant protein standards enabled calculation of absolute concentrations of each of the six cytokines encompassed by the bead array.

The test system of the next data set is K562-CD123 target cells. As to the kind of experiment: Antigen-specific cytotoxicity of lentivirus-transduced T cells against 50:50 K562-CD19/K562-CD123. The format is cell-based, human. To be noted: sample containing rapamycin; T:K562 5:1. An excerpt: The DARIC system was extended to an additional model antigen to show the broad applicability of artificial cells expressing drug regulated multipartite receptors templated herein. K562 target cell lines were generated to express the CD123 antigen by sub-cloning this antigen into a lentiviral vector comprising a puromycin selection cassette (SEQ ID NO.:74), lentiviral particles were produced, and K562 cells were infected and selected with puromycin.

The mark [2] stands for this setting: T cells expressing DARIC components (DSC plus DBC-CD19), 500 nM AP21967, 1:1.

Read-outs that look alike come from different tables or passages of the source.

As to `CO[C@H]1[C@@H](O)[C@H](C)C[C@H](C)/C=C/C=C/C=C(\C)[C@@H](c2c[nH]c3c(C)cccc23)C[C@@H]2CC[C@@H](C)[C@@](O)(O2)C(=O)C(=O)N2CCCC[C@H]2C(=O)O[C@H]([C@H](C)C[C@@H]2CC[C@@H](O)[C@H](OC)C2)C[C@H](O)[C@H](C)/C=C(\C)[C@H]1O` [AP21967, C-16-(S)-7-methylindolerapamycin], in the data set on K562-CD19 cells (T cells with DARIC signaling component FRB (2021-2113) T2098L, T:K562 5:1, rapamycin 10 nM or AP21967 100 nM), the “elimination of CD19 expressing K562 cells” value is given as “elimination of the CD19 expressing K562 cells”. The “elimination of K562-CD19 cells” value in the data set with K562-CD19 cells (T cells with DARIC signaling component FRB dimerization domain, T:K562 5:1, rapamycin 10 nM or AP21967 100 nM) is reported as “no effect on cell survival”. Besides, the specific cytotoxicity entry with K562-CD19 target cells (T cells expressing both DARIC components (DSC plus DBC-CD19), 500 nM AP21967) is on record as “substantial specific cytoxicity”. In data set [1] (setting [2]), the IFNγ production entry is on record as “equivalent, or superior, to the single chain CD19-CAR positive control” and the IL-2 production entry was “equivalent, or superior, to the single chain CD19-CAR positive control”.
As for `C=CC[C@@H]1/C=C(\C)C[C@H](C)C[C@H](OC)[C@H]2O[C@@](O)(C(=O)C(=O)N3CCCC[C@H]3C(=O)O[C@H](/C(C)=C/[C@@H]3CC[C@@H](O)[C@H](OC)C3)[C@H](C)[C@@H](O)CC1=O)[C@H](C)C[C@@H]2OC` [FK506], the “change in antigen specific cytotoxicity on addition of anti-bridging factor” value in the data set on K562-CD19 cells (CD19 targeting CAR T cells) is recorded as “minimal reduction”; in the data set with K562-CD19 cells (CD19 targeting DARIC T cells with rapamycin) it was “marked reduction”.
Turning to `CO[C@H]1C[C@@H]2CC[C@@H](C)[C@@](O)(O2)C(=O)C(=O)N2CCCC[C@H]2C(=O)O[C@H]([C@H](C)C[C@@H]2CC[C@@H](OCCO)[C@H](OC)C2)CC(=O)[C@H](C)/C=C(\C)[C@@H](O)[C@@H](OC)C(=O)[C@H](C)C[C@H](C)/C=C/C=C/C=C/1C` [everolimus], in the data set with K562-CD19 cells (T:K562 5:1), the “cytotoxicity responses on titration of bridging factor” value is listed as “maintained to sub-nanomolar drug concentrations”.
For the molecule `CO[C@H]1C[C@@H]2CC[C@@H](C)[C@@](O)(O2)C(=O)C(=O)N2CCCC[C@H]2C(=O)O[C@H]([C@H](C)C[C@@H]2CC[C@@H](O)[C@H](OC)C2)CC(=O)[C@H](C)/C=C(\C)[C@@H](O)[C@@H](OC)C(=O)[C@H](C)C[C@H](C)/C=C/C=C/C=C/1C` [rapamycin], in the data set with K562-CD19 cells (T:K562 5:1), the “cytotoxicity responses on titration of bridging factor” value is on record as “maintained to sub-nanomolar drug concentrations”. Further, the cytotoxicity response result with K562-CD19 cells (mixed T cell populations, one expressing DARIC antigen binding component, the other DARIC signaling component) is “cytotoxicity response against K562-CD19 cells”. In the data set with K562-CD19 cells (swapped DARIC: binding component DmrC, signaling component DmrA (SEQ ID NOs.:12, 31), samples containing rapamycin), the antigen specific cytotoxicity entry is recorded as “Antigen specific cytotoxicity was observed”.
“SS-DmrC-CD8TM-41BB-CD3z-P2A-SS-CD123scFv-DmrA-CD4TM protein [CD123 DARIC]”: the cytotoxicity entry with K562-CD123 target cells is given as “Cytotoxicity was observed”.
Take “SS-FRB(T2098L)-TM-41BB-CD3z mRNA [DARIC signaling component]”: the specific cytotoxicity result in the data set on K562-CD19 target cells (primary human T cells electroporated with IVT-mRNA, 50:50 K562-CD19/K562-CD20, 3:1 or 10:1 T cell to target cell ratio) is “no significant cytotoxicity”.
Consider “both DARIC components: T cells expressing both DARIC binding and signaling components”, for which the specific cytotoxicity result in the data set with K562-CD19 target cells (T cells expressing both DARIC components, without addition of AP21967) is recorded as “no significant cytotoxicity”. The cytokine production entry in data set [1] (T cells expressing DARIC components, absence of bridging factor AP21967) is “no significant cytokine production”.
